# Read-outs that look alike come from different tables or passages of the source. *1 amine or outer side, *2 acyl side, *3 side chain or, on linkers, in order; H or OH if unused. Where a SMILES comes first, the peptide text is derived from it. Bridges are numbered along the chain shown (N, C = ends). [ ]: non-standard residue; d: D form. The star is where a group is joined. Pro(trans-4-NH2) = O=C([C@@H]1C[C@@H](N[*:3])CN1[*:1])[*:2]; DOTA = O=C(O)CN1CCN(CC(=O)O)CCN(CC(=O)*)CCN(CC(=O)O)CC1; Phe(4-CONH2) = NC(=O)c1ccc(C[C@H](N)C(=O)O)cc1; Pro(cis-4-F) = O=C(O)[C@@H]1C[C@H](F)CN1; Hyp = O=C(O)[C@@H]1C[C@@H](O)CN1; 3Pal = N[C@@H](Cc1cccnc1)C(=O)O; Pentanoyl(4-Me) = CC(C)CCC(=O)*; Cit = NC(=O)NCCC[C@H](N)C(=O)O; Butoxycarbonyl = CCCCOC(=O)*; Suc = O=C(CCC(=O)[*:2])[*:1]; Orn = NCCC[C@H](N)C(=O)O; Nva = CCC[C@H](N)C(=O)O; Pentanoyl = CCCCC(=O)*; AEEA = NCCOCCOCC(=O)O
# Tests used:
# [1] = molecular target: T1, uPAR-expressing HEC-265 human endometrial adenocarcinoma cells (Homo sapiens, UniProt Q03405); assay: Competitive FACS binding assay; conditions: pIC50 category of FACS binding
# T1 construct: Cell surface uPAR-expressing HEC-265 human endometrial adenocarcinoma cells; host or cells: HEC-265
# T1 sequence (Q03405 23-335): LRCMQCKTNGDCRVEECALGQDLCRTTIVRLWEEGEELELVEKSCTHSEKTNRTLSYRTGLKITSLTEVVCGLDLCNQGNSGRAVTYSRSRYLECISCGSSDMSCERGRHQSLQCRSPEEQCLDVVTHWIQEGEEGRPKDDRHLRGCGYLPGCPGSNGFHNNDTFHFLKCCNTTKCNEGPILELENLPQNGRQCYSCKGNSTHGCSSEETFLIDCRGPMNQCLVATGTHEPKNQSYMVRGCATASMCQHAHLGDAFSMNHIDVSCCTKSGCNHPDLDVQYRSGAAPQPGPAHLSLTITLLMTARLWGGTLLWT
# In short: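 HEC-265 cells incubated 1 h at 4 °C with 10 nM biotinylated uPAR peptide tracer plus increasing test compound, then stained with APC-streptavidin on ice. Median APC fluorescence by flow cytometry; 4PL fit gives pIC50.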
# human uPAR (uPAR-Fc) = molecular target: T2, human uPAR (uPAR-Fc) (Homo sapiens, UniProt Q03405); assay: Surface plasmon resonance (SPR) assay, single cycle kinetics; format: binding; conditions: pKD category for uPAR SPR activity assay, uPAR-Fc on Protein A-Chip, 25°C, read-out: pKD CAT (converted)
# T2 construct: comprising amino acids Leu23-Arg303 according to UniProt entry Q03405.1; purchased R&D Systems 10378-UK-100
# T2 sequence (Q03405 23-303): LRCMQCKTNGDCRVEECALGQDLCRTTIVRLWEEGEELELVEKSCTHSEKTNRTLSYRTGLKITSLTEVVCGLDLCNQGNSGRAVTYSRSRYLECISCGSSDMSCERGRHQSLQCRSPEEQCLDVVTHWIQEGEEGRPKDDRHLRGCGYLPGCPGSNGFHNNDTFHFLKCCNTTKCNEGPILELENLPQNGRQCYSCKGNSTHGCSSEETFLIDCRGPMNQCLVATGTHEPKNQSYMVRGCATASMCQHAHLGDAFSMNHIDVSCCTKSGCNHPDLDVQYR
# In short: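 uPAR-Fc (Leu23-Arg303 extracellular domains, human IgG1 Fc) captured on Protein A chip to ~2000 RU; single-cycle kinetics at 25°C in HEPES running buffer pH 7.4 with 0.1% DMSO. KD from double-referenced sensorgrams fitted to 1:1 Langmuir model, reported as pKD.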
SMILES,IC50 [1] [nM],Kd (human uPAR (uPAR-Fc)) [nM],Kd (human uPAR (uPAR-Fc); single cycle kinetics) [nM]
"CCCCOC(=O)N[C@H]1CSSC[C@@H](C(N)=O)NC(=O)[C@H](CCC)NC(=O)[C@H]([C@@H](C)CC)NC(=O)[C@@H]2C[C@@H](O)CN2C(=O)[C@@H]2C[C@H](F)CN2C(=O)[C@H](Cc2ccccc2)NC(=O)[C@H](Cc2ccc(C(N)=O)cc2)NC(=O)[C@H](CCCNC(=O)CN2CCN(CC(=O)O)CCN(CC(=O)O)CCN(CC(=O)O)CC2)NC(=O)[C@H]([C@@H](C)O)NC1=O [UPAR-276, Butoc-[Cys-Thr-Orn(DOTA)-Pcnf-Phe-4Cfp-Hyp-Ile-Nva-Cys]-NHz] (Butoxycarbonyl-CT[Orn](DOTA)[Phe(4-CONH2)]F[Pro(cis-4-F)][Hyp]I[Nva]C-NH2; disulfide 1-10)",≤ 10,< 1.58,
"CC[C@H](C)[C@@H]1NC(=O)[C@@H](CCCNC(=N)N)NC(=O)[C@@H]2CCCN2C(=O)[C@H](Cc2ccccc2)NC(=O)[C@H](Cc2ccc(O)cc2)NC(=O)[C@H](CCCCNC(=O)CN2CCN(CC(=O)O)CCN(CC(=O)O)CCN(CC(=O)O)CC2)NC(=O)[C@H](CCCNC(N)=O)NC(=O)[C@@H](NC(=O)[C@H](CC(C)C)NC(=O)[C@H](CC(=O)O)NC(C)=O)CSSC[C@@H](C(N)=O)NC(=O)[C@H](CC(C)C)NC1=O [UPAR-306, Ac-Asp-Leu-[Cys-Cit-Lys(DOTA)-Tyr-Phe-Pro-arg-Ile-Leu-Cys]-NH2] (Ac-DLC[Cit]K(DOTA)YFP[dR]ILC-NH2; disulfide 3-12)",≤ 10,< 1.58,
"CC[C@H](C)[C@@H]1NC(=O)[C@@H](C)NC(=O)[C@@H]2CCCN2C(=O)[C@H](Cc2ccccc2)NC(=O)[C@H](Cc2ccc(O)cc2)NC(=O)[C@H](CCC(N)=O)NC(=O)[C@H](CCCNC(N)=O)NC(=O)[C@@H](NC(=O)CCC(C)C)CSSC[C@@H](C(N)=O)NC(=O)[C@H](CC(C)C)NC1=O [UPAR-338, iHex-[Cys-Cit-Gln-Tyr-Phe-Pro-ala-Ile-Leu-Cys]-NH2] ({Pentanoyl(4-Me)}-C[Cit]QYFP[dA]ILC-NH2; disulfide 1-10)",≤ 10,< 1.58,
"CC[C@H](C)[C@@H]1NC(=O)[C@@H]2CCCN2C(=O)[C@@H]2CCCN2C(=O)[C@H](Cc2ccccc2)NC(=O)[C@H](Cc2ccc(O)cc2)NC(=O)[C@H](CCCCNC(=O)CN2CCN(CC(=O)O)CCN(CC(=O)O)CCN(CC(=O)O)CC2)NC(=O)[C@H](CCCNC(N)=O)NC(=O)[C@@H](NC(=O)CCC(C)C)CSSC[C@@H](C(N)=O)NC(=O)[C@H](CC(C)C)NC1=O [UPAR-382, iHex-[Cys-Cit-Lys(DOTA)-Tyr-Phe-Pro-Pro-Ile-Leu-Cys]-NHz] ({Pentanoyl(4-Me)}-C[Cit]K(DOTA)YFPPILC-NH2; disulfide 1-10)",≤ 10,,< 1.58
"CC[C@H](C)[C@@H]1NC(=O)[C@@H]2C[C@@H](NC(=O)CN3CCN(CC(=O)O)CCN(CC(=O)O)CCN(CC(=O)O)CC3)CN2C(=O)[C@@H]2CCCN2C(=O)[C@H](Cc2ccccc2)NC(=O)[C@H](Cc2ccc(O)cc2)NC(=O)[C@H](CCC(N)=O)NC(=O)[C@H](CCCNC(N)=O)NC(=O)[C@@H](NC(=O)CCC(C)C)CSSC[C@@H](C(N)=O)NC(=O)[C@H](CC(C)C)NC1=O [UPAR-389, iHex-[Cys-Cit-Gln-Tyr-Phe-Pro-Tap(DOTA)-Ile-Leu-Cys]-NH2] ({Pentanoyl(4-Me)}-C[Cit]QYFP[Pro(trans-4-NH2)](DOTA)ILC-NH2; disulfide 1-10)",≤ 10,,< 1.58
"CCCCC(=O)N[C@H]1CSSC[C@@H](C(N)=O)NC(=O)[C@H](CCC)NC(=O)[C@H]([C@@H](C)CC)NC(=O)[C@@H]2C[C@@H](O)CN2C(=O)[C@@H]2C[C@@H](O)CN2C(=O)[C@H](Cc2ccccc2)NC(=O)[C@H](Cc2ccc(O)cc2)NC(=O)[C@H](CCCCNC(=O)CN2CCN(CC(=O)O)CCN(CC(=O)O)CCN(CC(=O)O)CC2)NC(=O)[C@H](CCCNC(N)=O)NC1=O [UPAR-403, Pent-[Cys-Cit-Lys(DOTA)-Tyr-Phe-Hyp-Hyp-Ile-Nva-Cys]-NH2] (Pentanoyl-C[Cit]K(DOTA)YF[Hyp][Hyp]I[Nva]C-NH2; disulfide 1-10)",≤ 10,,< 1.58
"CC[C@H](C)[C@@H]1NC(=O)[C@@H](C)NC(=O)[C@@H]2CCCN2C(=O)[C@H](Cc2ccccc2)NC(=O)[C@H](Cc2ccc(O)cc2)NC(=O)[C@H](CC(=O)O)NC(=O)[C@H](CCCNC(N)=O)NC(=O)[C@@H](NC(=O)CCC(C)C)CSSC[C@@H](C(N)=O)NC(=O)[C@H](CC(C)C)NC1=O [UPAR-434, iHex-[Cys-Cit-Asp-Tyr-Phe-Pro-ala-Ile-Leu-Cys]-NH2] ({Pentanoyl(4-Me)}-C[Cit]DYFP[dA]ILC-NH2; disulfide 1-10)",≤ 10,,< 1.58

# Second part, the compound after the results:
IC50 [1] [nM],Kd (human uPAR (uPAR-Fc)) [nM],Kd (human uPAR (uPAR-Fc); single cycle kinetics) [nM],SMILES
≤ 10,< 1.58,,"CCCCC(=O)N[C@H]1CSSC[C@@H](C(N)=O)NC(=O)[C@H](CCC)NC(=O)[C@H]([C@@H](C)CC)NC(=O)[C@@H]2C[C@@H](O)CN2C(=O)[C@@H]2CCCN2C(=O)[C@H](Cc2ccccc2)NC(=O)[C@H](Cc2cccnc2)NC(=O)[C@H](CCCCNC(=O)CN2CCN(CC(=O)O)CCN(CC(=O)O)CCN(CC(=O)O)CC2)NC(=O)[C@H](CCCNC(N)=O)NC1=O [UPAR-138, Pent-[Cys-Cit-Lys(DOTA)-Mpa-Phe-Pro-Hyp-Ile-Nva-Cys]-NH2] (Pentanoyl-C[Cit]K(DOTA)[3Pal]FP[Hyp]I[Nva]C-NH2; disulfide 1-10)"
≤ 10,< 1.58,,"CC[C@H](C)[C@@H]1NC(=O)[C@@H]2C[C@@H](O)CN2C(=O)[C@@H]2CCCN2C(=O)[C@H](Cc2ccccc2)NC(=O)[C@H](Cc2ccc(O)cc2)NC(=O)[C@H](CCC(N)=O)NC(=O)[C@H](CCCNC(N)=O)NC(=O)[C@@H](NC(=O)CCC(C)C)CSSC[C@@H](C(N)=O)NC(=O)[C@H](CC(C)C)NC1=O [UPAR-174, iHex-[Cys-Cit-Gln-Tyr-Phe-Pro-Hyp-Ile-Leu-Cys]-NH2] ({Pentanoyl(4-Me)}-C[Cit]QYFP[Hyp]ILC-NH2; disulfide 1-10)"
≤ 10,< 1.58,,"CC[C@H](C)[C@@H]1NC(=O)[C@@H](C)NC(=O)[C@@H]2CCCN2C(=O)[C@H](Cc2ccccc2)NC(=O)[C@H](Cc2ccc(O)cc2)NC(=O)[C@H](CCCCNC(=O)CN2CCN(CC(=O)O)CCN(CC(=O)O)CCN(CC(=O)O)CC2)NC(=O)[C@H](CCCNC(N)=O)NC(=O)[C@@H](NC(=O)[C@H](CC(C)C)NC(=O)[C@H](CC(=O)O)NC(C)=O)CSSC[C@@H](C(N)=O)NC(=O)[C@H](CC(C)C)NC1=O [UPAR-189, Ac-Asp-Leu-[Cys-Cit-Lys(DOTA)-Tyr-Phe-Pro-ala-Ile-Leu-Cys]-NH2] (Ac-DLC[Cit]K(DOTA)YFP[dA]ILC-NH2; disulfide 3-12)"
≤ 10,< 1.58,,"CC[C@H](C)[C@@H]1NC(=O)[C@@H]2CCCN2C(=O)[C@@H]2CCCN2C(=O)[C@H](Cc2ccccc2)NC(=O)[C@H](Cc2ccc(O)cc2)NC(=O)[C@H](CCC(N)=O)NC(=O)[C@H](CCCNC(N)=O)NC(=O)[C@@H](NC(=O)[C@H](CC(C)C)NC(=O)COCCOCCNC(=O)CN2CCN(CC(=O)O)CCN(CC(=O)O)CCN(CC(=O)O)CC2)CSSC[C@@H](C(N)=O)NC(=O)[C@H](CC(C)C)NC1=O [UPAR-229, DOTA-O2Oc-Leu-[Cys-Cit-Gln-Tyr-Phe-Pro-Pro-Ile-Leu-Cys]-NHz] ({DOTA-AEEA}-LC[Cit]QYFPPILC-NH2; disulfide 2-11)"
≤ 10,< 1.58,,"CC[C@H](C)[C@@H]1NC(=O)[C@@H](C)NC(=O)[C@@H]2CCCN2C(=O)[C@H](Cc2ccccc2)NC(=O)[C@H](Cc2ccc(O)cc2)NC(=O)[C@H](CCC(N)=O)NC(=O)[C@H](CCCNC(N)=O)NC(=O)[C@@H](NC(=O)[C@H](CC(C)C)NC(=O)COCCOCCNC(=O)CN2CCN(CC(=O)O)CCN(CC(=O)O)CCN(CC(=O)O)CC2)CSSC[C@@H](C(N)=O)NC(=O)[C@H](CC(C)C)NC1=O [UPAR-245, DOTA-O2Oc-Leu-[Cys-Cit-Gln-Tyr-Phe-Pro-ala-Ile-Leu-Cys]-NH2] ({DOTA-AEEA}-LC[Cit]QYFP[dA]ILC-NH2; disulfide 2-11)"
≤ 10,< 1.58,,"CCCCC(=O)N[C@H]1CSSC[C@@H](C(N)=O)NC(=O)[C@H](CCC)NC(=O)[C@H]([C@@H](C)CC)NC(=O)[C@@H]2C[C@@H](O)CN2C(=O)[C@@H]2CCCN2C(=O)[C@H](Cc2ccccc2)NC(=O)[C@H](Cc2ccc(O)cc2)NC(=O)[C@H](CCCCNC(=O)CN2CCN(CC(=O)O)CCN(CC(=O)O)CCN(CC(=O)O)CC2)NC(=O)[C@H](CCCNC(N)=O)NC1=O [UPAR-261, Pent-[Cys-Cit-Lys(DOTA)-Tyr-Phe-Pro-Hyp-Ile-Nva-Cys]-NH2] (Pentanoyl-C[Cit]K(DOTA)YFP[Hyp]I[Nva]C-NH2; disulfide 1-10)"
≤ 10,< 1.58,,"CCC[C@H](NC(=O)CCC(=O)O)C(=O)N[C@H]1CSSC[C@@H](C(N)=O)NC(=O)[C@H](CCC)NC(=O)[C@H]([C@@H](C)CC)NC(=O)[C@@H]2C[C@@H](O)CN2C(=O)[C@@H]2CCCN2C(=O)[C@H](Cc2ccccc2)NC(=O)[C@H](Cc2ccc(O)cc2)NC(=O)[C@H](CCCCNC(=O)CN2CCN(CC(=O)O)CCN(CC(=O)O)CCN(CC(=O)O)CC2)NC(=O)[C@H](CCCNC(N)=O)NC1=O [UPAR-293, HO-Succinyl-Nva-[Cys-Cit-Lys(DOTA)-Tyr-Phe-Pro-Hyp-Ile-Nva-Cys]-NH2] (Suc-[Nva]C[Cit]K(DOTA)YFP[Hyp]I[Nva]C-NH2; disulfide 2-11)"
